The assay deals with T1, LPA1 (Homo sapiens, UniProt Q92633).
T1 construct: ProLink (PK) beta-galactosidase enzyme-fragment tag; host or cells: CHO-K1
T1 sequence (Q92633 whole entry, the tested form may be a part): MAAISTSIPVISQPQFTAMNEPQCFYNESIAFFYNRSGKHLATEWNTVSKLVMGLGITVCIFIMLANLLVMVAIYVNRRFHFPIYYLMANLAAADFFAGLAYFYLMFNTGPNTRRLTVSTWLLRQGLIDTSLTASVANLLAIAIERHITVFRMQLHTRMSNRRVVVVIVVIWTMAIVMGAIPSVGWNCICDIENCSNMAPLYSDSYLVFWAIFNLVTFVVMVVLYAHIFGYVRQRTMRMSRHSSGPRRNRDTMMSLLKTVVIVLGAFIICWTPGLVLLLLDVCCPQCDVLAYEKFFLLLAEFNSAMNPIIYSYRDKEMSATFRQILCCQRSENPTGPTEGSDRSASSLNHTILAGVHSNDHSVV
Nature of the assay: LPA1 calcium flux assay (LPA1 functional antagonist assay). It counts as cell-based. To be noted: PathHunter CHO-K1 EDG2 β-Arrestin cell line; calcium indicator dye; stimulated with EC80 concentration of LPA; FLIPR Tetra. An outline of the steps: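 The LPA1 antagonist readout was intracellular calcium flux, and IC50 values were calculated from it. Plates stood 30 min at RT after compound addition. Cells, grown overnight, had first taken up calcium dye over 45 min at 37 °C.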
For orientation: Calcium flux is commonly read through the fluorescence of an indicator in the cells.
As for `Cc1nc(-c2nnn(C)c2CN2CCN(CC3CC3)C2=O)ccc1N1CC(CC(=O)O)CC(F)(F)C1` (stereo in doubt) [Example 70, (R)-2-(1-(6-(5-((3-(cyclopropylmethyl)-2-oxoimidazolidin-1-yl)methyl)-1-methyl-1H-1,2,3-triazol-4-yl)-2-methylpyridin-3-yl)-5,5-difluoropiperidin-3-yl)acetic acid], the IC50 was over 5 µM.
For `CCc1nc(-c2cnn(C)c2Cn2cc(C3CC3)ccc2=O)ncc1N1C[C@@H](CC(=O)O)CC(F)(F)C1` [Example 39, (S)-2-(1-(2-(5-((5-cyclopropyl-2-oxopyridin-1(2H)-yl)methyl)-1-methyl-1H-pyrazol-4-yl)-4-ethylpyrimidin-5-yl)-5,5-difluoropiperidin-3-yl)acetic acid], the IC50 was 0.5 to 5 µM.
Consider `CCCc1ccc(=O)n(Cc2c(-c3ccc(N4C[C@H](F)C[C@@H](CC(=O)O)C4)c(CC)n3)nnn2C)c1` (single isomer, unassigned) [Example 46, 2-((3R,5R) or (33,5S)-1-(2-ethyl-6-(1-methyl-5-((2-oxo-5-propylpyridin-1(2H)-yl)methyl)-1H-1,2,3-triazol-4-yl)pyridin-3-yl)-5-fluoropiperidin-3-yl)acetic acid], for which the IC50 was over 5 µM.
With `Cc1nc(-c2nnn(C)c2COc2nccc(-n3cccn3)n2)ccc1N1CCC[C@H](CC(=O)O)C1` [Example 102, (R)-2-(1-(6-(5-(((4-(1H-pyrazol-1-yl)pyrimidin-2-yl)oxy)methyl)-1-methyl-1H-1,2,3-triazol-4-yl)-2-methylpyridin-3-yl)piperidin-3-yl)acetic acid], the IC50 is under 0.1 µM.
Regarding `CCc1nc(-c2nnn(C)c2Cn2cc(OC3CC3)ccc2=O)ccc1N1C[C@@H](CC(=O)O)CC(F)(F)C1` [Example 24, (S)-2-(1-(6-(5-((5-cyclopropoxy-2-oxopyridin-1(2H)-yl)methyl)-1-methyl-1H-1,2,3-triazol-4-yl)-2-ethylpyridin-3-yl)-5,5-difluoropiperidin-3-yl)acetic acid], the concentration for half-maximal inhibition (IC50) was under 0.1 µM.
Take `CCc1nc(-c2nnn(C)c2COc2nccc(C3CCC3)n2)ccc1N1CCC[C@@H](CC(=O)O)C1` [Example 81, (S)-2-(1-(6-(5-(((4-cyclobutylpyrimidin-2-yl)oxy)methyl)-1-methyl-1H-1,2,3-triazol-4-yl)-2-ethylpyridin-3-yl)piperidin-3-yl)acetic acid]: the IC50 was over 5 µM.
As for `CCc1nc(-c2nnn(C)c2Cn2cc(CC(C)C)ccc2=O)ccc1CN1CC(C(=O)O)CC(F)(F)C1` (single isomer, unassigned) [Example 154, (S) or (R)-1-((2-ethyl-6-(5-((5-isobutyl-2-oxopyridin-1(2H)-yl)methyl)-1-methyl-1H-1,2,3-triazol-4-yl)pyridin-3-yl)methyl)-5,5-difluoropiperidine-3-carboxylic acid], the figure is 0.1 to 0.5 µM; as for `Cc1nc(-c2nnn(C)c2Cn2ccc(CC3CC3)c(C)c2=O)ccc1N1CC(CC(=O)O)CC(F)(F)C1` (stereo in doubt) [Example 3, (S)-2-(1-(6-(5-((4-(cyclopropylmethyl)-3-methyl-2-oxopyridin-1(2H)-yl)methyl)-1-methyl-1H-1,2,3-triazol-4-yl)-2-methylpyridin-3-yl)-5,5-difluoropiperidin-3-yl)acetic acid], 0.5 to 5 µM; as for `Cc1nc(-c2nnn(C)c2COc2nccc(C(C)C)n2)ccc1N1C[C@@H](CC(=O)O)CC(F)(F)C1` [Example 77, (S)-2-(5,5-difluoro-1-(6-(5-(((4-isopropylpyrimidin-2-yl)oxy)methyl)-1-methyl-1H-1,2,3-triazol-4-yl)-2-methylpyridin-3-yl)piperidin-3-yl)acetic acid], 0.1 to 0.5 µM.
Take `CCc1nc(-c2nnn(C)c2CNc2nccc(C3CCC3)n2)ccc1CN1CC(C(=O)O)CC(F)(F)C1` (single isomer, unassigned) [Example 162, (S) or (R)-1-((6-(5-(((4-cyclobutylpyrimidin-2-yl)amino)methyl)-1-methyl-1H-1,2,3-triazol-4-yl)-2-ethylpyridin-3-yl)methyl)-5,5-difluoropiperidine-3-carboxylic acid]: the IC50 was under 0.1 µM.
For the compound `CCCc1ccc(=O)n(Cc2c(-c3ncc(CN4CC(C(=O)O)CC(F)(F)C4)c(CC)n3)cnn2C)c1` (single isomer, unassigned) [Example 161, (R) or (S)-1-((4-ethyl-2-(1-methyl-5-((2-oxo-5-propylpyridin-1(2H)-yl)methyl)-1H-pyrazol-4-yl)pyrimidin-5-yl)methyl)-5,5-difluoropiperidine-3-carboxylic acid], the IC50 was 0.5 to 5 µM.
As for `CCCc1ccnn(Cc2c(-c3ccc(N4C[C@@H](CC(=O)O)CC(F)(F)C4)c(C)n3)nnn2C)c1=O` [Example 32, (S)-2-(5,5-difluoro-1-(2-methyl-6-(1-methyl-5-((6-0xo-5-propylpyridazin-1(6H)-yl)methyl)-1H-1,2,3-triazol-4-yl)pyridin-3-yl)piperidin-3-yl)acetic acid], the figure is 0.5 to 5 µM.
`CCc1nc(-c2nnn(C)c2Cn2cc(CC3CC3)ccc2=O)ccc1N1C[C@@H](CC(=O)O)CC(F)(F)C1` [Example 13, (S)-2-(1-(6-(5-((5-(cyclopropylmethyl)-2-oxopyridin-1(2H)-yl)methyl)-1-methyl-1H-1,2,3-triazol-4-yl)-2-ethylpyridin-3-yl)-5,5-difluoropiperidin-3-yl)acetic acid]: the IC50 was under 0.1 µM.
As to `CCCc1ccc(=O)n(Cc2c(-c3ccc(N4CCC[C@H](CC(=O)O)C4)c(C(F)F)n3)nnn2C)c1` [Example 60, (R)-2-(1-(2-(difluoromethyl)-6-(1-methyl-5-((2-oxo-5-propylpyridin-1(2H)-yl)methyl)-1H-1,2,3-triazol-4-yl)pyridin-3-yl)piperidin-3-yl)acetic acid], the IC50 is under 0.1 µM.
Consider `CCc1nc(-c2nnn(C)c2COc2nccc(C3CCC3)n2)ccc1N1CCC[C@H](CC(=O)O)C1` [Example 74, (R)-2-(1-(6-(5-(((4-cyclobutylpyrimidin-2-yl)oxy)methyl)-1-methyl-11H-1,2,3-triazol-4-yl)-2-ethylpyridin-3-yl)piperidin-3-yl)acetic acid], for which the IC50 was under 0.1 µM.
In the case of `CCCc1ccc(=O)n(Cc2c(-c3ccc(N4C[C@@H](CC(=O)O)CC(F)(F)C4)c(C#N)n3)nnn2C)c1` [Example 49, (S)-2-(1-(2-cyano-6-(1-methyl-5-((2-oxo-5-propylpyridin-1(2H)-yl)methyl)-1H-1,2,3-triazol-4-yl)pyridin-3-yl)-5,5-difluoropiperidin-3-yl)acetic acid], the IC50 was over 5 µM.
Consider `CCc1nc(-c2nnn(C)c2Cn2cc(C3CC3)c(C)cc2=O)ccc1N1C[C@@H](CC(=O)O)CC(F)(F)C1` [Example 18], for which the IC50 fell in the range of 0.5 to 5 µM.
With `CCc1nc(-c2cnn(C)c2Cn2cc(CC3CC3)nn2)ncc1N1C[C@@H](CC(=O)O)CC(F)(F)C1` [Example 135, (S)-2-(1-(2-(5-((4-(cyclopropylmethyl)-1H-1,2,3-triazol-1-yl)methyl)-1-methyl-1H-pyrazol-4-yl)-4-ethylpyrimidin-5-yl)-5,5-difluoropiperidin-3-yl)acetic acid], the IC50 is over 5 µM.
For `CCCc1cc(C)c(=O)n(Cc2c(-c3ccc(N4C[C@@H](CC(=O)O)CC(F)(F)C4)c(C)n3)nnn2C)c1` [Example 1, (S)-2-(5,5-difluoro-1-(2-methyl-6-(1-methyl-5-((3-methyl-2-oxo-5-propylpyridin-1(2H)-yl)methyl)-1H-1,2,3-triazol-4-yl)pyridin-3-yl)piperidin-3-yl)acetic acid] the value was 0.5 to 5 µM; for `CCc1nc(-c2nnn(C)c2COc2ncnc(C3CCC3)n2)ccc1N1CCC[C@H](CC(=O)O)C1` [Example 95, (R)-2-(1-(6-(5-(((4-cyclobutyl-1,3,5-triazin-2-yl)oxy)methyl)-1-methyl-1H-1,2,3-triazol-4-yl)-2-ethylpyridin-3-yl)piperidin-3-yl)acetic acid], under 0.1 µM.
With `CCc1nc(-c2cnn(C)c2Cn2cc(CC(C)C)ccc2=O)ncc1N1C[C@@H](CC(=O)O)CC(F)(F)C1` [Example 40, (S)-2-(1-(4-ethyl-2-(5-((5-isobutyl-2-oxopyridin-1(2H)-yl)methyl)-1-methyl-1H-pyrazol-4-yl)pyrimidin-5-yl)-5,5-difluoropiperidin-3-yl)acetic acid], the IC50 was 0.5 to 5 µM.
With `CCOc1ccc(=O)n(Cc2c(-c3ccc(N4C[C@@H](CC(=O)O)CC(F)(F)C4)c(CC)n3)nnn2C)c1` [Example 26, (S)-2-(1-(6-(5-((5-ethoxy-2-oxopyridin-1(2H)-yl)methyl)-1-methyl-1H-1,2,3-triazol-4-yl)-2-ethylpyridin-3-yl)-5,5-difluoropiperidin-3-yl)acetic acid], the IC50 is 0.1 to 0.5 µM.
With `CCC(C)n1ccn(Cc2c(-c3ccc(N4C[C@@H](CC(=O)O)CC(F)(F)C4)c(C)n3)nnn2C)c1=O` (stereo partly drawn) [Example 73, 2-((3S)-1-(6-(5-((3-(sec-butyl)-2-oxo-2,3-dihydro-1H-imidazol-1-yl)methyl)-1-methyl-1H-1,2,3-triazol-4-yl)-2-methylpyridin-3-yl)-5,5-difluoropiperidin-3-yl)acetic acid], the IC50 is over 5 µM.
On to `CCc1nc(-c2nnn(C)c2Cn2cc(C)c(C3CC3)cc2=O)ccc1N1C[C@@H](CC(=O)O)CC(F)(F)C1` [Example 19, (S)-2-(1-(6-(5-((4-cyclopropyl-5-methyl-2-oxopyridin-1(2H)-yl)methyl)-1-methyl-1H-1,2,3-triazol-4-yl)-2-ethylpyridin-3-yl)-5,5-difluoropiperidin-3-yl)acetic acid], for which the IC50 was over 5 µM.
For `CCc1nc(-c2nnn(C)c2COc2noc(C3CCC3)n2)ccc1N1C[C@@H](CC(=O)O)CC(F)(F)C1` [Example 119, (S)-2-(1-(6-(5-(((5-cyclobutyl-1,2,4-oxadiazol-3-yl)oxy)methyl)-1-methyl-1H-1,2,3-triazol-4-yl)-2-ethylpyridin-3-yl)-5,5-difluoropiperidin-3-yl)acetic acid], the IC50 fell in the range of 0.1 to 0.5 µM.

For orientation: IC50 means the concentration needed to halve the response being measured.
